Data on one compound can be found in ChEMBL document CHEMBL4414590, “Discovery of SIAIS178 as an Effective BCR-ABL Degrader by Recruiting Von Hippel-Lindau (VHL) E3 Ubiquitin Ligase” (J Med Chem, 2019).

Activity calls are given as the source filed them. The rule behind the calls is not given here.

Series [1] concerns the target Bcr/Abl fusion protein (Homo sapiens) (UniProt P00519+P11274). Kind of series: Inhibition of BCR-ABL in human KU812 cells assessed as reduction in STAT5 phosphorylation at 1 to 30 nM by Western blot analysis. Format: cell-based.
A further series concerns HL-60. Kind of series: Growth inhibition of human HL60 cells incubated for 2 days by CCK8 assay. The series is classed as functional, cell-based. (Tetrazolium dyes change colour on reduction, which living cells bring about.)
Series [2] concerns the target T1, von Hippel-Lindau disease tumor suppressor/Tyrosine-protein kinase ABL1/Breakpoint cluster region protein (Homo sapiens, UniProt P00519+P11274+P40337). Kind of series: Protac activity against VHL/BCR-ABL in human K562 cells assessed as induction of BCR-ABL degradation at 100 nM incubated up to 24 hrs by Western blot analysis. The series is classed as cell-based. The note with it: TDE = time-dependent effect. On the technique in general: A western blot detects proteins with antibodies after separation by electrophoresis.

Series [3] concerns K562. As to the kind of experiment: Effect on BCR-ABL protein levels in human K562 cells at 100 nM up to 24 hrs by Western blot analysis. The series is classed as ADME, cell-based. The note with it: k562, 24 h, 0.1 µM.
In series [4] the target is T1, von Hippel-Lindau disease tumor suppressor/Tyrosine-protein kinase ABL1/Breakpoint cluster region protein. Kind of series: Protac activity against VHL/BCR-ABL in human K562 cell lysates assessed as induction of pull down of endogenous BCR-ABL at 10 to 100 nM in presence of excess immobilized GST-VBC bait by GST-pull down assay. The series is classed as subcellular. The settings on record: Lysate.

Series [5] can be described thus: Permeability in human Caco2 cells at 10 uM incubated for 120 mins by LC-MS/MS analysis. The settings on record: caco-2, 2 h. Format: ADME, cell-based. In general terms: Caco-2 monolayers are a common model of the intestinal barrier.
For series [6], the target named is T1, von Hippel-Lindau disease tumor suppressor/Tyrosine-protein kinase ABL1/Breakpoint cluster region protein. Kind of series: Induction of ternary complex formation between VHL and BCR-ABL (unknown origin) expressed in HEK293 cells expressing N-terminal BCR-ABL LgBit fusion protein and N-terminal SmBit-VHL fusion protein incubated for 1 hr by NanoBit technology based luciferase complementation assay. Format: cell-based.

Series [7] deals with K562. Kind of series: Effect on YES protein level in human K562 cells at 100 nM incubated for 16 hrs by multiplexed tandem mass spectrometry. Format: ADME, cell-based. The settings on record: k562, 16 h, 0.1 µM.
Series [8] addresses T1, von Hippel-Lindau disease tumor suppressor/Tyrosine-protein kinase ABL1/Breakpoint cluster region protein. As to the kind of experiment: Protac activity against VHL/BCR-ABL in human K562 cells assessed as reduction in BCR-ABL protein levels at 1 to 100 nM incubated for 16 hrs by Western blot analysis. The series is classed as cell-based.
Series [9] concerns the target von Hippel-Lindau disease tumor suppressor/Tyrosine-protein kinase ABL2 (Homo sapiens) (UniProt P42684+P40337). Kind of series: Protac activity against VHL/ABL2 in human K562 cells assessed as reduction in ABL2 protein levels at 1 to 100 nM incubated for 16 hrs by Western blot analysis. Format: cell-based.
Series [10] has as its target von Hippel-Lindau disease tumor suppressor/Receptor-interacting serine/threonine-protein kinase 2 (Homo sapiens) (UniProt O43353+P40337). Kind of series: Protac activity against VHL/RIPK2 in human K562 cells assessed as reduction in RIPK2 protein levels at 1 to 100 nM incubated for 16 hrs by Western blot analysis. Format: cell-based.
Series [11] concerns the target von Hippel-Lindau disease tumor suppressor/Proto-oncogene tyrosine-protein kinase Src (Homo sapiens) (UniProt P12931+P40337). As to the kind of experiment: Protac activity against VHL/Src in human K562 cells assessed as reduction in Src protein levels at 1 to 100 nM incubated for 16 hrs by Western blot analysis. Format: cell-based.
Series [12] addresses von Hippel-Lindau disease tumor suppressor/Platelet-derived growth factor receptor beta (Homo sapiens) (UniProt P09619+P40337). As to the kind of experiment: Protac activity against VHL/PDGFRbeta in human K562 cells assessed as reduction in PDGFRbeta protein levels at 1 to 100 nM incubated for 16 hrs by Western blot analysis. Format: cell-based.
Series [13] deals with von Hippel-Lindau disease tumor suppressor/Tyrosine-protein kinase Lck (Homo sapiens) (UniProt P06239+P40337). Kind of series: Protac activity against VHL/LCK in human K562 cells assessed as reduction in Lck protein levels at 1 to 100 nM incubated for 16 hrs by Western blot analysis. Format: cell-based.
Series [14] deals with von Hippel-Lindau disease tumor suppressor/Tyrosine-protein kinase Yes (Homo sapiens) (UniProt P07947+P40337). Kind of series: Protac activity against VHL/YES in human K562 cells assessed as reduction in Yes protein levels at 1 to 100 nM incubated for 16 hrs by Western blot analysis. The series is classed as cell-based.
Series [15] deals with von Hippel-Lindau disease tumor suppressor/Mast/stem cell growth factor receptor Kit (Homo sapiens) (UniProt P10721+P40337). Kind of series: Protac activity against VHL/KIT in human K562 cells assessed as reduction in Kit protein levels at 1 to 100 nM incubated for 16 hrs by Western blot analysis. Format: cell-based.
Chain of von Hippel-Lindau disease tumor suppressor/Mast/stem cell growth factor receptor Kit (Homo sapiens) (P10721 whole entry, looked up): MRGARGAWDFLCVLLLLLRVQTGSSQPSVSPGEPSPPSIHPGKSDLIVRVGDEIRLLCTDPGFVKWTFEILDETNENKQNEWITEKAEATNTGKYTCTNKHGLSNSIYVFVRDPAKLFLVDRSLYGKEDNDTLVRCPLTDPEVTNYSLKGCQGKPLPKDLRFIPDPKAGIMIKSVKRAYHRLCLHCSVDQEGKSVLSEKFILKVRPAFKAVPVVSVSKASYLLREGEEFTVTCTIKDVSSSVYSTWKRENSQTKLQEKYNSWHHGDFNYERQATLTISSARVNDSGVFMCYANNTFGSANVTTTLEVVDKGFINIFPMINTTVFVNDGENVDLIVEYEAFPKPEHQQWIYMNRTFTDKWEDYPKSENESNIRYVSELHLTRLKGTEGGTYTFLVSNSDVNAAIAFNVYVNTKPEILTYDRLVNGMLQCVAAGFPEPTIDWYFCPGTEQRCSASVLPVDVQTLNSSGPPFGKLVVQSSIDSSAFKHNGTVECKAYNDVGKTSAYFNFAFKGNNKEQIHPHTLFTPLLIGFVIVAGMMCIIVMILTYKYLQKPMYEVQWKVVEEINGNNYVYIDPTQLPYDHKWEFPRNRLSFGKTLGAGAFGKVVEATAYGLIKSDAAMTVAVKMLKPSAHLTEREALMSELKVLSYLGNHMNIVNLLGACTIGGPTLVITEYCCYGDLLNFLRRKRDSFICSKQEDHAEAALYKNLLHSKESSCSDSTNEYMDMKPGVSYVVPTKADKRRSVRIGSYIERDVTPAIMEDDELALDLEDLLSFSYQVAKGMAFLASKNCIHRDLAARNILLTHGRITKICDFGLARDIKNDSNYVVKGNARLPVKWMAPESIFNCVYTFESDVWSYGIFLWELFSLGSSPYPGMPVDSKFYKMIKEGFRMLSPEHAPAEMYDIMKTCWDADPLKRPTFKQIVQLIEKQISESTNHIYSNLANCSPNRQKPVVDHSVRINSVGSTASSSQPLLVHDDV
Chain of von Hippel-Lindau disease tumor suppressor/Mast/stem cell growth factor receptor Kit (Homo sapiens) (P40337 whole entry, looked up): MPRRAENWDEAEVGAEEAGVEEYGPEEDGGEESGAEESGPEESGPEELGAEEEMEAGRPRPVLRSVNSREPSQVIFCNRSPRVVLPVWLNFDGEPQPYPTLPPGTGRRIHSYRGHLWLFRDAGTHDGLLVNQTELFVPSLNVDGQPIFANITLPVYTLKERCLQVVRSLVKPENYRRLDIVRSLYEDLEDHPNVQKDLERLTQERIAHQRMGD
For series [16], the system named is K562. Kind of series: Antitumor activity against luciferse expressing human K562 cells xenografted in NOD/SCID mouse assessed as attenuation of tumor progression at 5 to 15 mg/kg, ip QD for 12 days by serial volumetric analysis. Format: functional, organism-based.
In series [17] the test system is K562. Kind of series: Antitumor activity against luciferse expressing human K562 cells xenografted in NOD/SCID mouse assessed as reduction in tumor burden at 5 to 15 mg/kg, ip QD for 12 days by bioluminescence imaging analysis. Format: functional, organism-based.
For series [18], the target named is T1, von Hippel-Lindau disease tumor suppressor/Tyrosine-protein kinase ABL1/Breakpoint cluster region protein. As to the kind of experiment: Protac activity against VHL/BCR-ABL in NOD/SCID mouse xenografted with luciferse expressing human K562 cells assessed as induction of BCR-ABL degradation at 5 to 15 mg/kg, ip QD for 4 days by Western blotting analysis. The series is classed as functional, organism-based.

Another series deals with Mus musculus. Kind of series: Inhibition of BCR-ABL phosphorylation in NOD/SCID mouse xenografted with luciferse expressing human K562 cells at 5 to 15 mg/kg, ip QD for 4 days by Western blotting analysis. The series is classed as functional, organism-based.
Series [19] concerns the target T1, von Hippel-Lindau disease tumor suppressor/Tyrosine-protein kinase ABL1/Breakpoint cluster region protein. As to the kind of experiment: Protac activity against VHL/BCR-ABL (unknown origin) expressed in human U937 cells assessed as induction of BCR-ABL degradation incubated for 16 hrs by Western blot analysis. The series is classed as cell-based.
Series [20] has as its system von Hippel-Lindau disease tumor suppressor/Tyrosine-protein kinase ABL1/Breakpoint cluster region protein (Homo sapiens), P00519+P11274+P40337 [G250E]. As to the kind of experiment: Protac activity against VHL/BCR-ABL G250E mutant (unknown origin) expressed in human U937 cells assessed as induction of BCR-ABL degradation incubated for 16 hrs by Western blot analysis. The series is classed as cell-based.

The test system of series [21] is von Hippel-Lindau disease tumor suppressor/Tyrosine-protein kinase ABL1/Breakpoint cluster region protein (Homo sapiens), P00519+P11274+P40337 [F317L]. Kind of series: Protac activity against VHL/BCR-ABL F317L mutant (unknown origin) expressed in human U937 cells assessed as induction of BCR-ABL degradation incubated for 16 hrs by Western blot analysis. Format: cell-based.

T1 sequence (P00519 whole entry, looked up): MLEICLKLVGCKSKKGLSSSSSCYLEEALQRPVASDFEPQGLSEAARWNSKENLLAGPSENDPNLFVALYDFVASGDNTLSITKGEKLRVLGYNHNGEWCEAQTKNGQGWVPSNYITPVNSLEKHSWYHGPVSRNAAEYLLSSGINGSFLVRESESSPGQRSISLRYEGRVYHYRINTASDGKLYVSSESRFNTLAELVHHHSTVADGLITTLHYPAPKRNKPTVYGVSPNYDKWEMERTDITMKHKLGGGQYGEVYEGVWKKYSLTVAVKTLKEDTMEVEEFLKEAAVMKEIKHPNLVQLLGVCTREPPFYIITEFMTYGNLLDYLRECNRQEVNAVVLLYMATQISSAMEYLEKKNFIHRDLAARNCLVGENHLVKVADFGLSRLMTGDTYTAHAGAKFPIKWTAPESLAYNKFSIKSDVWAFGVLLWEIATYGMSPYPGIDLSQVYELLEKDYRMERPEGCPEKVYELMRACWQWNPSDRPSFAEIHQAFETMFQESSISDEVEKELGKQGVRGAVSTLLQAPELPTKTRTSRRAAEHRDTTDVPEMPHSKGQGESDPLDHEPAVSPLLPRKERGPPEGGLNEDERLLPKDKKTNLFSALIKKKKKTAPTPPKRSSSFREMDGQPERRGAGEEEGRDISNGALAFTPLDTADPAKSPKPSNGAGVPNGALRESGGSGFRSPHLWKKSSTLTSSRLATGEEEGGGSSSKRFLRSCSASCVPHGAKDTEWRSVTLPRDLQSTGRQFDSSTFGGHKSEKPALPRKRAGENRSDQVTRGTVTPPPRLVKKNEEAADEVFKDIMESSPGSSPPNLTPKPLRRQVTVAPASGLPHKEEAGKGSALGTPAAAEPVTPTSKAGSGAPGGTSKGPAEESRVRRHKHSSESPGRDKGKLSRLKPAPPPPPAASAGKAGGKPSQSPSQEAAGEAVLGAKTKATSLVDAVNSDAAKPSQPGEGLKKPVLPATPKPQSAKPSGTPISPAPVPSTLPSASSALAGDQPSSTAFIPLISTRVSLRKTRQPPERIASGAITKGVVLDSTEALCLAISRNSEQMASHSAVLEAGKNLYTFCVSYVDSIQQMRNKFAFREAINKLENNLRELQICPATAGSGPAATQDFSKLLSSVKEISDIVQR
T1 sequence (P11274 whole entry, looked up): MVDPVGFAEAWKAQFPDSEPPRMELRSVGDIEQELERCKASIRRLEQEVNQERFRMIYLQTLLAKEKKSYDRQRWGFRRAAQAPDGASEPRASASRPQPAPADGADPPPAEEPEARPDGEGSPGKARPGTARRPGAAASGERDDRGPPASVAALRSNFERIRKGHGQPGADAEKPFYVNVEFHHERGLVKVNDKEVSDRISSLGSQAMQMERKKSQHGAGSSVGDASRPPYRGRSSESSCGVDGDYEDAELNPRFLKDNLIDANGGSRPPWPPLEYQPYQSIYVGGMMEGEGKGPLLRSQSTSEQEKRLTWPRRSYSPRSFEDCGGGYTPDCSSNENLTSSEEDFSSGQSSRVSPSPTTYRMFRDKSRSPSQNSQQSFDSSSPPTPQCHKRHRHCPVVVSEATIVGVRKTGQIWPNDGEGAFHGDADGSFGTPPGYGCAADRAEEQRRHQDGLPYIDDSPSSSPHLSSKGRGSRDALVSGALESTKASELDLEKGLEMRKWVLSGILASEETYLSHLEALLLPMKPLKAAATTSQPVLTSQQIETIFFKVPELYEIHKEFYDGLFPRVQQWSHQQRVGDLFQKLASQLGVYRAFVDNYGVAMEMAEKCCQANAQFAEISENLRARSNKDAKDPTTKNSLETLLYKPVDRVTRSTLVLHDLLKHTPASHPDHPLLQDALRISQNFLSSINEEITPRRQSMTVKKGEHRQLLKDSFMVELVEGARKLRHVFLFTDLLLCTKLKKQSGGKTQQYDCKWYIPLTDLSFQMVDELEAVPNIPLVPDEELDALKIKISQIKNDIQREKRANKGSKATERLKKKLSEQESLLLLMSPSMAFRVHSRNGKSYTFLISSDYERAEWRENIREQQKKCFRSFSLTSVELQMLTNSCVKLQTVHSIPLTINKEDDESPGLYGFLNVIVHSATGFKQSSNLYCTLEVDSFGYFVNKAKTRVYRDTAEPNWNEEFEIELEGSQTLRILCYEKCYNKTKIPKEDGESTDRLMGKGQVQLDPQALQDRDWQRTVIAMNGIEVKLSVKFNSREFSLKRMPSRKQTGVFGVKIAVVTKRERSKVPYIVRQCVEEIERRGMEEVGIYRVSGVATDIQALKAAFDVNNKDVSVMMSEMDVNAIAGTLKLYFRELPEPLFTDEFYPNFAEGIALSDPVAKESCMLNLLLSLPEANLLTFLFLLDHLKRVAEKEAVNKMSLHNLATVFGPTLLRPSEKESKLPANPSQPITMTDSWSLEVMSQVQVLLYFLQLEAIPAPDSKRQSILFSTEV
T1 sequence (P40337 whole entry, looked up): as the sequence (P40337 whole entry, looked up) above
Chain of von Hippel-Lindau disease tumor suppressor/Proto-oncogene tyrosine-protein kinase Src (Homo sapiens) (P12931 whole entry, looked up): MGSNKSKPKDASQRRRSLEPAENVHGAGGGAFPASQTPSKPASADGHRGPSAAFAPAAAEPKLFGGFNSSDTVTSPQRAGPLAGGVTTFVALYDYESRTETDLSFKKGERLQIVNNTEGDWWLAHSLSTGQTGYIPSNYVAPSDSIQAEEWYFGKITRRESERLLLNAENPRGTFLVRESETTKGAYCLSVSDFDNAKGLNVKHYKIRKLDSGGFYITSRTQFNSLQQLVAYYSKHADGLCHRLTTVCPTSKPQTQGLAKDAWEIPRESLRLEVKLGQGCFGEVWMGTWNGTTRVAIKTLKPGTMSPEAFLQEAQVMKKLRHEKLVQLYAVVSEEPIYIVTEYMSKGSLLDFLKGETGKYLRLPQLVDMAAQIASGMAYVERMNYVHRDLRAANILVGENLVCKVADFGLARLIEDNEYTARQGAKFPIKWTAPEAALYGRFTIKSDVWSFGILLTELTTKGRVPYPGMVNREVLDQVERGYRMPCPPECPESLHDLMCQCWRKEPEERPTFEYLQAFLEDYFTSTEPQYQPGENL
Chain of von Hippel-Lindau disease tumor suppressor/Proto-oncogene tyrosine-protein kinase Src (Homo sapiens) (P40337 whole entry, looked up): as the sequence (P40337 whole entry, looked up) above

In the case of `Cc1nc(Nc2ncc(C(=O)Nc3c(C)cccc3Cl)s2)cc(N2CCN(C(=O)CCCCCCC(=O)N[C@H](C(=O)N3C[C@H](O)C[C@H]3C(=O)NCc3ccc(-c4scnc4C)cc3)C(C)(C)C)CC2)n1`, the inhibition result (in series [1]; in the series with Mus musculus) was “Active” each time. For the same compound, the “growth inhibition (GI)” value in the series on HL-60 was “inactive”. In addition, the Activity result in [2] is “Tde”; with K562 [3], “Non-Toxic”; in series [4], “Dose-dependent effect”; in the series on K562 [7] it was “Non-Toxic”; in [8] it was “Dose-dependent effect”; in series [9], “Dose-dependent effect”. In addition, the Activity result (in series [10]; in series [11]; in series [12]; in the series on K562 [16]; in series [18]; in series [19]) was “Dose-dependent effect” throughout. Moreover, the Activity entry in series [20] and in series [21] was “Dose-dependent effect” each time. Further, the permeability result in series [5] is given as “Permeable”. Further, the outcome (in series [6]; in the series on K562 [17]) was Active. Besides, the outcome in [13], in series [14] and in series [15] was inactive.
